In the supplement of paper PMC10307832:

Key:
Test in all cases: relative viability (nuclei count vs DMSO), 5 days (fraction); higher = more cells survive
IPA-3 + OSI-027 = compound: C1=CC=C2C(=C1)C=CC(=C2SSC3=C(C=CC4=CC=CC=C43)O)O [IPA-3] + COc1cccc2cc(-c3nc([C@H]4CC[C@H](C(=O)O)CC4)n4ncnc(N)c34)[nH]c12 [OSI-027] (partner 0.5 µM)
How it was run: (§1)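 Each reported value is a median over duplicate plates. It expresses relative viability: treated-well nuclei count divided by vehicle-well nuclei count. Lung cancer cell lines in 1536-well plates were dosed by pin tool a day after seeding, alone with one drug or with a fixed anchor-drug dose plus five library-drug doses (not always all listed) in √10 steps, and nuclei were counted after 5 days.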

IPA-3 + Decitabine = compound: C1=CC=C2C(=C1)C=CC(=C2SSC3=C(C=CC4=CC=CC=C43)O)O [IPA-3] + Nc1ncn([C@H]2C[C@H](O)[C@@H](CO)O2)c(=O)n1 [Decitabine] (partner 2 µM)
How it was run: as §1

Doramapimod + AZD7762 = compound: Cc1ccc(-n2nc(C(C)(C)C)cc2NC(=O)Nc2ccc(OCCN3CCOCC3)c3ccccc23)cc1 [Doramapimod] + NC(=O)Nc1cc(-c2cccc(F)c2)sc1C(=O)N[C@H]1CCCNC1 [AZD7762] (partner 0.2 µM)
How it was run: as §1

Doramapimod + Navitoclax = compound: Cc1ccc(-n2nc(C(C)(C)C)cc2NC(=O)Nc2ccc(OCCN3CCOCC3)c3ccccc23)cc1 [Doramapimod] + CC1(C)CCC(c2ccc(Cl)cc2)=C(CN2CCN(c3ccc(C(=O)NS(=O)(=O)c4ccc(N[C@H](CCN5CCOCC5)CSc5ccccc5)c(S(=O)(=O)C(F)(F)F)c4)cc3)CC2)C1 [Navitoclax] (partner 0.5 µM)
How it was run: as §1

Cell Line	relative viability (IPA-3 + OSI-027; first compound 0.2 µM)	relative viability (IPA-3 + OSI-027; first compound 0.6325 µM)	relative viability (IPA-3 + OSI-027; first compound 2 µM)	relative viability (IPA-3 + OSI-027; first compound 6.325 µM)	relative viability (IPA-3 + OSI-027; first compound 20 µM)	relative viability (IPA-3 + Decitabine; first compound 0.2 µM)	relative viability (IPA-3 + Decitabine; first compound 0.6325 µM)	relative viability (IPA-3 + Decitabine; first compound 2 µM)	relative viability (IPA-3 + Decitabine; first compound 6.325 µM)	relative viability (IPA-3 + Decitabine; first compound 20 µM)	relative viability (Doramapimod + AZD7762; first compound 0.02 µM)	relative viability (Doramapimod + AZD7762; first compound 0.06325 µM)	relative viability (Doramapimod + AZD7762; first compound 0.2 µM)	relative viability (Doramapimod + AZD7762; first compound 0.6325 µM)	relative viability (Doramapimod + AZD7762; first compound 2 µM)	relative viability (Doramapimod + Navitoclax; first compound 0.02 µM)	relative viability (Doramapimod + Navitoclax; first compound 0.06325 µM)	relative viability (Doramapimod + Navitoclax; first compound 0.2 µM)	relative viability (Doramapimod + Navitoclax; first compound 0.6325 µM)	relative viability (Doramapimod + Navitoclax; first compound 2 µM)
NCI-H2342	0.663	0.619	0.68	0.757	0.743	0.772	0.75	0.737	0.798	0.839	0.416	0.513	0.49	0.486	0.485	–	–	–	–	–
NCI-H1299	–	–	–	–	–	–	–	–	–	–	–	–	–	–	–	1.1	1.13	1.12	1.05	1.09
NCI-H2009	0.918	0.6	0.649	0.59	0.359	0.38	0.353	0.444	0.395	0.312	–	–	–	–	–	1.25	1.18	1.2	1.29	1.19
Calu-6	–	–	–	–	–	–	–	–	–	–	–	–	–	–	–	0.885	0.894	0.899	0.92	0.846
NCI-H1703	–	–	–	–	–	–	–	–	–	–	–	0.118	0.108	0.0991	0.113	0.957	0.944	1.16	1.54	0.896
NCI-H1650	0.763	0.515	0.676	0.724	0.727	0.44	0.396	0.386	0.349	0.374	–	–	–	–	–	1.09	1.2	1.23	1.63	1.2
NCI-H1648	0.258	0.276	0.281	0.278	0.245	0.529	0.465	0.4	0.59	0.525	0.653	0.695	0.63	0.548	0.59	–	–	–	–	–
COR-L23	1.05	0.771	0.795	0.696	0.552	0.553	0.469	0.41	0.419	0.256	–	–	–	–	–	1.1	0.989	1	1.07	1.02
NCI-H1623	0.466	0.436	0.431	0.413	0.375	–	–	–	–	–	–	–	–	–	–	–	–	–	–	–
NCI-H650	0.561	0.534	0.521	0.521	0.566	0.297	0.33	0.292	0.294	0.348	0.88	1.11	0.941	1.16	1.02	–	–	–	–	–
CAL-12T	0.884	0.63	0.676	0.475	0.656	–	–	–	–	–	0.675	0.765	0.696	0.596	0.535	1.14	1.14	1.14	1.48	1.03
NCI-H2228	0.991	0.476	0.62	0.559	0.435	–	–	–	–	–	–	–	–	–	–	0.669	0.786	1.05	0.913	0.605
NCI-H661	0.894	0.726	0.716	0.356	0.673	0.664	0.548	0.528	0.543	0.528	–	–	–	–	–	–	–	–	–	–
SK-LU-1	0.361	0.347	0.341	0.345	0.354	0.708	0.497	0.658	0.689	0.651	–	–	–	–	–	0.544	1	0.821	1.01	0.7
SW 1573	0.867	0.385	0.528	0.634	0.183	0.7	0.452	0.485	0.56	0.121	–	–	–	–	–	1.11	0.83	1.05	0.78	0.789
NCI-H522	0.719	0.619	0.751	0.764	0.846	0.703	0.642	0.534	0.689	0.765	0.879	0.744	0.708	0.736	0.9	–	–	–	–	–
ABC-1	0.55	0.426	0.457	0.564	0.567	1.35	1.02	1.33	0.99	1.26	0.761	0.674	0.874	0.794	0.674	–	–	–	–	–
SW 900	0.759	0.611	0.6	0.556	0.409	0.501	0.453	0.49	0.415	0.476	0.569	0.72	0.551	0.76	0.486	–	–	–	–	–
NCI-H2023	0.507	0.352	0.415	0.54	0.421	0.233	0.225	0.209	0.216	0.2	–	–	–	–	–	1.09	1.08	0.892	1	0.948
SK-MES-1	0.722	0.581	0.635	0.521	0.423	0.455	0.394	0.423	0.296	0.31	–	–	–	–	–	1.16	1.25	1.23	1.25	0.99
IA-LM	–	–	–	–	–	–	–	–	–	–	–	–	–	–	–	0.676	0.567	0.804	0.807	0.577
A549	–	–	–	–	–	0.379	0.278	0.128	0.274	0.179	–	–	–	–	–	1.18	1.22	1.39	1.34	1.1
LCLC-103H	0.442	0.444	0.463	0.486	0.505	0.703	0.684	0.749	0.748	0.638	0.908	0.78	0.795	0.978	0.762	–	–	–	–	–
NCI-H358	0.895	0.733	0.746	0.69	0.758	0.229	0.199	0.196	0.2	0.108	0.486	0.522	0.438	0.363	0.38	–	–	–	–	–
